Laboratory results published in ChEMBL document CHEMBL1201862, “PubChem BioAssay data set” (2004).
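Step 1: Grow cells in 96-well plates. Step 2: Expose to compound for 48 hours at 5 concentrations. Step 3: Interpolate endpoints linearly; if unreached, use highest concentration. The concentration for 50% growth inhibition is given as GI50.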 Active and inactive are the calls of the source. Rule as the data show it: active = GI50 up to about 1.1 µM and inactive = higher.

How the values were obtained:
Experiment in all cases: NCI tumour cell line growth inhibition, 48 h
MCF7 = system: MCF7
COLO 205 = system: COLO 205
OVCAR-4 = system: OVCAR-4
OVCAR-5 = system: OVCAR-5
CAKI-1 = system: CAKI-1
BT-549 = system: BT-549
A498 = system: A498
T47D = system: T47D
SF-295 = system: SF-295
HT-29 = system: HT-29
UO-31 = system: UO-31
TK-10 = system: TK-10
IGROV-1 = system: IGROV-1
SNB-75 = system: SNB-75
EKVX = system: EKVX
NCI-H522 = system: NCI-H522
HL-60 = system: HL-60
HOP-92 = system: HOP-92
HCT-15 = system: HCT-15
DLD-1 = system: DLD-1

Row | Structure (SMILES) | GI50 (MCF7) | GI50 (COLO 205) | GI50 (OVCAR-4) | GI50 (OVCAR-5) | GI50 (CAKI-1) | GI50 (BT-549) | GI50 (A498) | GI50 (T47D) | GI50 (SF-295) | GI50 (HT-29) | GI50 (UO-31) | GI50 (TK-10) | GI50 (IGROV-1) | GI50 (SNB-75) | GI50 (EKVX) | GI50 (NCI-H522) | GI50 (HL-60) | GI50 (HOP-92) | GI50 (HCT-15) [µM] | GI50 (DLD-1)
1 | COc1cc(-c2cc(O)c(-c3ccc4ccccc4n3)c(O)n2)cc(OC)c1OC | 39.1 µM (inactive) | 38.7 µM (inactive) | > 38.5 µM (inactive) | > 59.6 µM (inactive) | > 44 µM (inactive) | 80.4 µM (inactive) | > 61 µM (inactive) | 97.5 µM (inactive) | 21.9 µM (inactive) | 18.6 µM (inactive) | 68.7 µM (inactive) | 69.7 µM (inactive) | 43.5 µM (inactive) | 17.9 µM (inactive) | > 52 µM (inactive) | 13.2 µM (inactive) | 8.55 µM (inactive) | 26.2 µM (inactive) | 29 | –
2 | O=C1Nc2ccccc2C1(O)Cc1ccccn1 (stereo not drawn) | > 100 µM (inactive) | > 100 µM (inactive) | > 100 µM (inactive) | > 100 µM (inactive) | > 100 µM (inactive) | > 100 µM (inactive) | > 100 µM (inactive) | > 100 µM (inactive) | > 100 µM (inactive) | > 100 µM (inactive) | > 100 µM (inactive) | > 100 µM (inactive) | > 100 µM (inactive) | 43.1 µM (inactive) | > 100 µM (inactive) | > 100 µM (inactive) | > 100 µM (inactive) | > 100 µM (inactive) | > 100 | –
3 | C=C=C[P+](c1ccccc1)(c1ccccc1)c1ccccc1 | – | 2.57 µM (inactive) | 21.9 µM (inactive) | – | – | – | 93.8 µM (inactive) | – | – | – | 35.2 µM (inactive) | 26.2 µM (inactive) | 31.5 µM (inactive) | 8.79 µM (inactive) | – | 2.24 µM (inactive) | 5.08 µM (inactive) | – | 11.5 | 5.61 µM (inactive)
4 | CCOC(=O)[C@H]1Nc2ccccc2C2c3ccccc3CC21 (stereo partly drawn) | – | 64.4 µM (inactive) | 38.2 µM (inactive) | 31.7 µM (inactive) | > 100 µM (inactive) | – | 24.9 µM (inactive) | – | 49 µM (inactive) | 19 µM (inactive) | 68.4 µM (inactive) | > 100 µM (inactive) | > 100 µM (inactive) | 39.5 µM (inactive) | – | 16.4 µM (inactive) | – | – | 49 | 51.4 µM (inactive)
5 | Cc1nc2ccncc2[nH]1 | – | > 100 µM (inactive) | > 100 µM (inactive) | > 100 µM (inactive) | > 100 µM (inactive) | – | > 100 µM (inactive) | – | > 100 µM (inactive) | > 100 µM (inactive) | > 100 µM (inactive) | > 100 µM (inactive) | > 100 µM (inactive) | 24.8 µM (inactive) | > 100 µM (inactive) | – | > 100 µM (inactive) | – | > 100 | > 100 µM (inactive)
6 | O=C(c1ccc(NCN2C(=O)CCC2=O)cc1)c1ccc(NCN2C(=O)CCC2=O)cc1 | – | > 100 µM (inactive) | > 100 µM (inactive) | > 100 µM (inactive) | – | – | – | – | > 100 µM (inactive) | > 100 µM (inactive) | > 100 µM (inactive) | > 100 µM (inactive) | > 100 µM (inactive) | – | > 100 µM (inactive) | > 100 µM (inactive) | 18.9 µM (inactive) | > 100 µM (inactive) | 45.2 | > 100 µM (inactive)
7 | COc1ccccc1/C=C1\C(=O)N(C(=O)Cc2ccccc2)N=C1C | – | > 100 µM (inactive) | > 100 µM (inactive) | > 100 µM (inactive) | > 100 µM (inactive) | – | – | – | > 100 µM (inactive) | > 100 µM (inactive) | > 100 µM (inactive) | > 100 µM (inactive) | – | > 100 µM (inactive) | > 100 µM (inactive) | > 100 µM (inactive) | > 100 µM (inactive) | – | > 100 | > 100 µM (inactive)
8 | COc1nc(=O)n(COC(CO)CN2C(=O)c3ccccc3C2=O)cc1Cc1cccc(OCc2ccccc2)c1 (stereo not drawn) | – | 19.8 µM (inactive) | 21.8 µM (inactive) | – | – | – | – | – | 22.1 µM (inactive) | 34 µM (inactive) | 16.3 µM (inactive) | 27 µM (inactive) | 24.8 µM (inactive) | 15.5 µM (inactive) | 33.8 µM (inactive) | – | 21.1 µM (inactive) | 21 µM (inactive) | 28.2 | 28.3 µM (inactive)
9 | COc1ccc(C2=NN(c3ccccc3)C[N+](c3ccc(OC)cc3)=N2)cc1 | – | > 10 µM (inactive) | 18.6 µM (inactive) | 25 µM (inactive) | – | – | > 100 µM (inactive) | – | 59.4 µM (inactive) | 57.3 µM (inactive) | 18.9 µM (inactive) | 42.4 µM (inactive) | 21.3 µM (inactive) | – | 33.8 µM (inactive) | 15.1 µM (inactive) | 24 µM (inactive) | – | 43.7 | 28.8 µM (inactive)
10 | O=C(Cc1ccccc1)NN1C(=O)C(Cl)C1c1ccc([N+](=O)[O-])cc1 (stereo not drawn) | – | > 100 µM (inactive) | 55.6 µM (inactive) | > 100 µM (inactive) | > 100 µM (inactive) | – | – | – | > 100 µM (inactive) | > 100 µM (inactive) | > 100 µM (inactive) | > 100 µM (inactive) | > 100 µM (inactive) | 93.8 µM (inactive) | > 100 µM (inactive) | 25.1 µM (inactive) | 70.5 µM (inactive) | – | 45.5 | > 100 µM (inactive)
11 | COc1cccc(Cc2c3cc(OC)ccc3cc[n+]2C)c1 | – | – | 58.5 µM (inactive) | > 100 µM (inactive) | > 100 µM (inactive) | – | > 100 µM (inactive) | – | > 100 µM (inactive) | 30.3 µM (inactive) | > 100 µM (inactive) | > 100 µM (inactive) | – | 32.8 µM (inactive) | > 100 µM (inactive) | 22.9 µM (inactive) | – | – | > 100 | > 100 µM (inactive)
12 | Nc1nnc(N)n1N | – | > 100 µM (inactive) | > 100 µM (inactive) | > 100 µM (inactive) | > 100 µM (inactive) | – | – | – | > 100 µM (inactive) | > 100 µM (inactive) | > 100 µM (inactive) | > 100 µM (inactive) | > 100 µM (inactive) | > 100 µM (inactive) | > 100 µM (inactive) | > 100 µM (inactive) | > 100 µM (inactive) | > 100 µM (inactive) | > 100 | > 100 µM (inactive)
13 | COC(=O)c1ccc(CS(=O)(=O)c2ccccc2)cc1 | – | 59.4 µM (inactive) | > 100 µM (inactive) | > 100 µM (inactive) | > 100 µM (inactive) | – | – | – | 61.7 µM (inactive) | 40.8 µM (inactive) | > 100 µM (inactive) | > 100 µM (inactive) | > 100 µM (inactive) | 48.3 µM (inactive) | > 100 µM (inactive) | – | 76.6 µM (inactive) | > 100 µM (inactive) | 39.5 | 91.8 µM (inactive)
14 | CCOC(=O)Cn1c(=O)n(C)c(=O)c2[nH]cnc21 | – | > 100 µM (inactive) | – | – | > 100 µM (inactive) | – | > 100 µM (inactive) | – | – | > 100 µM (inactive) | > 100 µM (inactive) | > 100 µM (inactive) | > 100 µM (inactive) | > 100 µM (inactive) | > 100 µM (inactive) | > 100 µM (inactive) | – | > 100 µM (inactive) | > 100 | > 100 µM (inactive)
15 | CC1CC(c2ccccc2)Nc2nc3ccccc3n21 (stereo not drawn) | > 100 µM (inactive) | > 100 µM (inactive) | > 100 µM (inactive) | > 100 µM (inactive) | > 100 µM (inactive) | > 100 µM (inactive) | > 100 µM (inactive) | > 100 µM (inactive) | > 100 µM (inactive) | 39.1 µM (inactive) | 59.8 µM (inactive) | > 100 µM (inactive) | > 100 µM (inactive) | > 100 µM (inactive) | > 100 µM (inactive) | > 100 µM (inactive) | > 100 µM (inactive) | > 100 µM (inactive) | > 100 | –
16 | COC(=O)Nc1nc2cc(S(=O)(=O)N3CCOCC3)ccc2[nH]1 | > 100 µM (inactive) | > 100 µM (inactive) | > 100 µM (inactive) | > 100 µM (inactive) | > 100 µM (inactive) | > 100 µM (inactive) | > 100 µM (inactive) | > 100 µM (inactive) | > 100 µM (inactive) | > 100 µM (inactive) | > 100 µM (inactive) | 80.2 µM (inactive) | > 100 µM (inactive) | 69.8 µM (inactive) | > 100 µM (inactive) | > 100 µM (inactive) | 6.21 µM (inactive) | > 100 µM (inactive) | > 100 | –
17 | Brc1ccc(C[N+]23CN4CN(CN(C4)C2)C3)cc1 | – | 26.3 µM (inactive) | – | – | – | – | – | – | > 100 µM (inactive) | – | 50.5 µM (inactive) | > 100 µM (inactive) | > 100 µM (inactive) | > 100 µM (inactive) | > 100 µM (inactive) | 17.1 µM (inactive) | 10.4 µM (inactive) | – | 24.2 | > 10 µM (inactive)
18 | CC(C)=CCC[C@](C)(O[C@@H]1O[C@H](CO)[C@@H](O)[C@H](O)[C@H]1O)[C@H]1CC[C@]2(C)[C@@H]1[C@H](O)C[C@@H]1[C@@]3(C)CC[C@H](O)C(C)(C)[C@@H]3[C@@H](O[C@@H]3O[C@H](CO)[C@@H](O)[C@H](O)[C@H]3O)C[C@]12C [GINSENOSIDE RG1] | > 100 µM (inactive) | > 100 µM (inactive) | > 100 µM (inactive) | > 100 µM (inactive) | > 100 µM (inactive) | > 100 µM (inactive) | > 100 µM (inactive) | > 100 µM (inactive) | > 100 µM (inactive) | > 100 µM (inactive) | > 100 µM (inactive) | > 100 µM (inactive) | > 100 µM (inactive) | > 100 µM (inactive) | > 100 µM (inactive) | > 100 µM (inactive) | > 100 µM (inactive) | > 100 µM (inactive) | > 100 | –
